Like-named read-outs stand apart in the source and are kept apart here.
What was measured:
[1] = target: T1, human platelet heparanase (Homo sapiens, UniProt Q9Y251); assay: Heparanase inhibition, 3H-radiolabelled HS cleavage assay; format: biochemical; conditions: for inhibition: read-out: Relative inhibition (%); for EC50: heparanase inhibition; for inhibition at 10 µg/mL: read-out: Inhibition (%) at 10 μg/ml
T1 construct: 10 ng of purified human platelet heparanase; from tissue; host or cells: human platelets
T1 sequence (Q9Y251 158-543 limits assumed): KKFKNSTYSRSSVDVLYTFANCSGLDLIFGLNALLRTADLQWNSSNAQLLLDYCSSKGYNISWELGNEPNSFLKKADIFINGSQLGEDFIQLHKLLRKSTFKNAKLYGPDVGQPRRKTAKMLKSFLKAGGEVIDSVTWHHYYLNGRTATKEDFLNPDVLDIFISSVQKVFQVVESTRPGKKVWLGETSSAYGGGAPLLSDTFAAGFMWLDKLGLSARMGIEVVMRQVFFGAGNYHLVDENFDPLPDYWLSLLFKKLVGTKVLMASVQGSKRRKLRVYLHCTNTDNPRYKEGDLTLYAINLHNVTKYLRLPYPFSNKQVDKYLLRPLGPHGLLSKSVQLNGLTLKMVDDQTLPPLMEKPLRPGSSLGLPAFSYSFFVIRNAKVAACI
T1 sequence (Q9Y251 36-109 limits assumed): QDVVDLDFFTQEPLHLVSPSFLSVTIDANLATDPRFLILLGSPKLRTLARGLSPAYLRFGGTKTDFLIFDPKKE
Method: Briefly, to an incubation mixture of […] containing ^3H-radiolabelled porcine mucosal HS […], 50 mM-sodium acetate buffer, pH 5.0, […] bovine serum albumin and the inhibitor to be tested, was added 10 ng of purified human platelet heparanase and the mixture incubated for 30 min. The reaction was terminated by freezing the assay tubes. The substrate was separated from the cleavage products on minicolumns of sepharose-bound histidine-rich glycoprotein (Freeman, C., and Parish, C. R. [1997], supra).
Inhibitory activity is based on a comparison with heparin with 100% inhibition at 30 μg/ml. The compounds were also tested at the same purity as in Example 15.

[2] = target: T2, human leukocyte Cathepsin G (Homo sapiens, UniProt P08311); assay: Cathepsin G inhibition, fluorogenic substrate, 96 well assay; format: biochemical; conditions: human leukocyte cathepsin G 100 ng, 37° C., 60 min, pH 6.6; for IC50: read-out: Amount for 50% inhibition (converted)
T2 construct: human leukocyte Cathepsin G (100 ng protein); from tissue; host or cells: human leukocytes
T2 sequence (P08311 21-244): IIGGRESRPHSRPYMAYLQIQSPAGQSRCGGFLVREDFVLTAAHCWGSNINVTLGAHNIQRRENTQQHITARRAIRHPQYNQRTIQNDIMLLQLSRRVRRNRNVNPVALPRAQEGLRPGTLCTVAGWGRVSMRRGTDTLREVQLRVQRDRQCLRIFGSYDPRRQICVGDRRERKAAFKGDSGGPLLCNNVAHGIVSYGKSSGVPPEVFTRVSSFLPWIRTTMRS
Method: Cathepsin G activity was determined using a 96 well assay format in PVC microtitre U-bottom plates with activity determination by a fluorescence plate reader. Briefly, within a total incubation volume of 40 μl, human leukocyte Cathepsin G (100 ng protein) was added to a mixture of inhibitor and the fluorogenic substrate MeOSuc-ala-ala-pro-phe-AMAC in 50 mM-NaOAc buffer, pH 6.6 containing 50 mM NaCl and 0.1% (v/v) Brij 35. The mixture was incubated at 37° C. for 60 min, the reaction stopped by the addition of 40 μl of 250 mM acetic acid and the fluorescence determined with excitation at 360 nm and emitted light measured at 460 nm.
In this table, the linked cyclitol compound identifications are the same as those given in Section A above where the structures of the compounds are also given. With regard to the purity rating, a greater number of asterisks signifies a greater degree of purity with five asterisks signifying an essentially pure compound. The cathepsin G inhibition data are the concentrations of compounds required to inhibit the enzyme by 50%.

VEGF = target: T3, VEGF (Homo sapiens, UniProt P15692); assay: Biacore biosensor: inhibition of VEGF binding to immobilised heparin and heparan sulfate; conditions: inhibitor 0.034 μM, VEGF 0.025 μM
T3 sequence (P15692 27-191 isoform P15692-4): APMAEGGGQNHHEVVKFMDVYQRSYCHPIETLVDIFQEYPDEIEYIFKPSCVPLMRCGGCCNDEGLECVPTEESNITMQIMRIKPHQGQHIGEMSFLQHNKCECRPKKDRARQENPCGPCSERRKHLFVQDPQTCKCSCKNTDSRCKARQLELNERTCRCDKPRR
Method: (§1) Assays were performed using a Biacore™ 2000 optical biosensor obtained from Biacore AB, Uppsala, Sweden. The biosensor was operated in accordance with the manufacturer's instructions. Briefly, neutravidin was covalently coupled to the surface of CM5 chips of the biosensor and then either biotinylated heparin (1 μg/ml) or biotinylated heparan sulfate ([…]) bound to the immobilised neutravidin. Mixtures of a test compound and a growth factor or other effector compound were preincubated for 2 to 5 minutes and the mixtures then added to individual biosensor cuvettes. Binding of growth factor or effector compound to the heparin or heparan sulfate was then monitored for approximately 5 minutes with the biosensor.
(§2) The tabulated values are the IC50 in μM or % inhibition of binding of the growth factor to the immobilised heparan sulfate (HS) or heparin.

aFGF = aFGF (Homo sapiens, UniProt P05230); assay: Biacore biosensor: inhibition of aFGF binding to immobilised heparin and heparan sulfate; conditions: inhibitor 0.034 μM, aFGF 0.025 μM
Chain of aFGF (P05230 whole entry, species assumed): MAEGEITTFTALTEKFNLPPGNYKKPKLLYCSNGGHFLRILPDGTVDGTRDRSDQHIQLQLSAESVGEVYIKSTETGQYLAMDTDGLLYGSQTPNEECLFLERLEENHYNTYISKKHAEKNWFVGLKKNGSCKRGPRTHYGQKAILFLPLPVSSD
Method: as §1, §2

IL-8 = target: T4, IL-8 (Homo sapiens, UniProt P10145); assay: Biacore biosensor: inhibition of IL-8 binding to immobilised heparin and heparan sulfate; conditions: inhibitor 1.0 μM, IL-8 0.068 μM
T4 sequence (P10145 21-99): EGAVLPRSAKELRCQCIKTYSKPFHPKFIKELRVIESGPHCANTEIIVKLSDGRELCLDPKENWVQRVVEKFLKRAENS
Method: as §1

bFGF = bFGF (Homo sapiens, UniProt P09038); assay: Biacore biosensor: inhibition of bFGF binding to immobilised heparin and heparan sulfate
Chain of bFGF (P09038 134-288 limits assumed, species assumed): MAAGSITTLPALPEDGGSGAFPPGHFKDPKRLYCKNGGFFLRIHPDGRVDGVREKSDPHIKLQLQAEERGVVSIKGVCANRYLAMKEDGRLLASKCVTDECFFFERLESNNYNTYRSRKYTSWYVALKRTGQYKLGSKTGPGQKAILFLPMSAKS
Method: as §1, §2

[3] = based on a comparison with heparin with 100% inhibition at 30 μg/ml
[4] = immobilised heparan sulfate, read-out: Inhibition of binding of VEGF (HS)
[5] = immobilised heparin, read-out: Inhibition of binding of VEGF (Hep)
[6] = immobilised heparan sulfate, read-out: Inhibition of binding of aFGF (HS)
[7] = immobilised heparin, read-out: Inhibition of binding of aFGF (Hep)
[8] = immobilised heparan sulfate, read-out: Inhibition of binding of IL-8 (HS)
[9] = immobilised heparin, read-out: Inhibition of binding of IL-8 (Hep)
[10] = immobilised heparan sulfate, inhibitor 0.034 μM, bFGF 0.034 μM, read-out: Inhibition of binding of bFGF (HS)
[11] = immobilised heparan sulfate, read-out: IC50, inhibition of bFGF binding (HS)
[12] = immobilised heparin, inhibitor 0.034 μM, bFGF 0.034 μM, read-out: Inhibition of binding of bFGF (Hep)
[13] = immobilised heparin, read-out: IC50, inhibition of bFGF binding (Hep)

Row | Structure (SMILES) | inhibition [1, 3] [%] | EC50 ([1]; read-out: EC50 (converted)) [nM] | inhibition at 10 µg/mL [1] [%] | IC50 [2] [nM] | inhibition at 0.034 µM (VEGF; [4]) [%] | inhibition at 0.034 µM (VEGF; [5]) [%] | inhibition at 0.034 µM (aFGF; [6]) [%] | inhibition at 0.034 µM (aFGF; [7]) [%] | inhibition at 1 µM (IL-8; [8]) [%] | inhibition at 1 µM (IL-8; [9]) [%] | inhibition at 0.034 µM (bFGF; [10]) [%] | IC50 (bFGF; [11]) [nM] | inhibition at 0.034 µM (bFGF; [12]) [%] | IC50 (bFGF; [13]) [nM] | other results
1 | O=S(=O)(O)O[C@H]1[C@H](OS(=O)(=O)O)[C@@H](N(CCCN([C@H]2C=C[C@@H](OS(=O)(=O)O)[C@@H](OS(=O)(=O)O)[C@@H]2OS(=O)(=O)O)[C@H]2C=C[C@@H](OS(=O)(=O)O)[C@@H](OS(=O)(=O)O)[C@@H]2OS(=O)(=O)O)[C@H]2C=C[C@@H](OS(=O)(=O)O)[C@@H](OS(=O)(=O)O)[C@@H]2OS(=O)(=O)O)C=C[C@H]1OS(=O)(=O)O [Compound 4a] | 60 | 16200 | 37 | 162 | 4 | 5 | 73 | 74 | 38 | 48 | 29 | 110 | 20 | > 250 | –
2 | O=S(=O)(O)O[C@H]1[C@H](OS(=O)(=O)O)[C@@H](N(CCCCCCCCCCN([C@H]2C=C[C@@H](OS(=O)(=O)O)[C@@H](OS(=O)(=O)O)[C@@H]2OS(=O)(=O)O)[C@H]2C=C[C@@H](OS(=O)(=O)O)[C@@H](OS(=O)(=O)O)[C@@H]2OS(=O)(=O)O)[C@H]2C=C[C@@H](OS(=O)(=O)O)[C@@H](OS(=O)(=O)O)[C@@H]2OS(=O)(=O)O)C=C[C@H]1OS(=O)(=O)O [Compound 4c] | 45 | 25500 | – | 158 | 53 | 62 | 21 | 26 | 77 | 76 | 43 | – | 34 | – | –
3 | O=S(=O)(O)O[C@H]1[C@H](OS(=O)(=O)O)[C@@H](N(CCN([C@H]2C=C[C@@H](OS(=O)(=O)O)[C@@H](OS(=O)(=O)O)[C@@H]2OS(=O)(=O)O)[C@H]2C=C[C@@H](OS(=O)(=O)O)[C@@H](OS(=O)(=O)O)[C@@H]2OS(=O)(=O)O)[C@H]2C=C[C@@H](OS(=O)(=O)O)[C@@H](OS(=O)(=O)O)[C@@H]2OS(=O)(=O)O)C=C[C@H]1OS(=O)(=O)O [Compound 4f] | 60 | 11100 | 44 | 189 | 0 | 0 | 68 | 65 | 38 | 48 | 19 | 240 | 15 | > 250 | –
4 | O=S(=O)(O)OC1C(OS(=O)(=O)O)C(OS(=O)(=O)O)C(N(CCCCCCN(C2C(OS(=O)(=O)O)C(OS(=O)(=O)O)C(OS(=O)(=O)O)C(OS(=O)(=O)O)C2OS(=O)(=O)O)C2C(OS(=O)(=O)O)C(OS(=O)(=O)O)C(OS(=O)(=O)O)C(OS(=O)(=O)O)C2OS(=O)(=O)O)C2C(OS(=O)(=O)O)C(OS(=O)(=O)O)C(OS(=O)(=O)O)C(OS(=O)(=O)O)C2OS(=O)(=O)O)C(OS(=O)(=O)O)C1OS(=O)(=O)O (centres unmarked) [Compound 5b] | – | 5920 | – | 304 | – | – | – | – | – | – | – | 96 | – | > 250 | –
5 | O=S(=O)(O)OC1C(OS(=O)(=O)O)C(OS(=O)(=O)O)C(N(CCCCCCCCCCN(C2C(OS(=O)(=O)O)C(OS(=O)(=O)O)C(OS(=O)(=O)O)C(OS(=O)(=O)O)C2OS(=O)(=O)O)C2C(OS(=O)(=O)O)C(OS(=O)(=O)O)C(OS(=O)(=O)O)C(OS(=O)(=O)O)C2OS(=O)(=O)O)C2C(OS(=O)(=O)O)C(OS(=O)(=O)O)C(OS(=O)(=O)O)C(OS(=O)(=O)O)C2OS(=O)(=O)O)C(OS(=O)(=O)O)C1OS(=O)(=O)O (centres unmarked) [Compound 5c] | – | 20600 | – | 198 | – | – | – | – | – | – | – | > 250 | – | > 250 | heparanase inhibition, in words [1]: poor heparanase inhibitor
6 | O=S(=O)(O)OC[C@H]1O[C@@](COS(=O)(=O)O)(O[C@H]2O[C@H](COS(=O)(=O)O)[C@@H](OS(=O)(=O)O)[C@H](OS(=O)(=O)O)[C@H]2OS(=O)(=O)O)[C@@H](OS(=O)(=O)O)[C@@H]1OS(=O)(=O)O [Sucrose octasulfate, reference compound] | – | – | – | – | – | – | – | – | – | – | – | 925 | – | > 1000 | Relative inhibition (%) [1, 3]: 0%; EC50 [1]: >30 µg/mL; Amount for 50% inhibition [2]: 4.30 µg/mL; Inhibition of binding of VEGF (HS) (VEGF; immobilised heparan sulfate): 0% (HS); Inhibition of binding of VEGF (Hep) (VEGF; immobilised heparin): 0% (Hep); Inhibition of binding of aFGF (HS) (aFGF; immobilised heparan sulfate): 0% (HS); Inhibition of binding of aFGF (Hep) (aFGF; immobilised heparin): 0% (Hep); Inhibition of binding of bFGF (HS) (bFGF; immobilised heparan sulfate, inhibitor 0.034 μM, bFGF 0.034 μM): 2.5% (HS); Inhibition of binding of bFGF (Hep) (bFGF; immobilised heparin, inhibitor 0.034 μM, bFGF 0.034 μM): 0% (Hep)

From patent publication US7173019B2, “Linked cyclitols and their polysulfated derivatives” (The Australian National University, priority 2001, dated 2007)
